# Values joined by “and” are separate entries in the source; they are usually repeats but may differ in a detail not shown here. Equal values may be shown once. Inconclusive results and toxic doses are left out. Where a SMILES comes first, the peptide text is derived from it. [ ]: non-standard residue; d: D form. The star is where a group is joined. Cbz = O=C(OCc1ccccc1)*; Nva = CCC[CH](N)C(=O)O
# Test system: B6C3F1 mice, B16 melanoma ip, median survival T/C
# Experiment: NCI In Vivo Anticancer Drug Screen. Data for tumor model B16 Melanoma (intraperitoneal) in B6C3F1 mice
# Details: endpoint: median survival time, schedule: Q01DX009 (ip), higher = longer survival
# Protocol: The antitumor activity of compounds was measured in mice bearing transplantable tumors. Survival or tumor size were measured and the results are expressed as the measurement made in the treated group (T) divided by the measurement made in the vehicle treated control group (C). The tumor model used in this assay is B16 Melanoma (intraperitoneal) in B6C3F1 mice
# [1] = dose: 50.0 mg/kg/injection, vehicle: saline with Tween-80
# [2] = dose: 100.0 mg/kg/injection, vehicle: saline with Tween-80
# [3] = dose: 50.0 mg/kg/injection, vehicle: saline
# [4] = dose: 25.0 mg/kg/injection, vehicle: saline with Tween-80
# [5] = dose: 100.0 mg/kg/injection, vehicle: Klucel (hydroxypropylcellulose) (HPC)
# [6] = dose: 200.0 mg/kg/injection, vehicle: Klucel (hydroxypropylcellulose) (HPC)
# [7] = dose: 400.0 mg/kg/injection, vehicle: Klucel (hydroxypropylcellulose) (HPC)
# [8] = dose: 12.5 mg/kg/injection, vehicle: saline with Tween-80
# [9] = dose: 100.0 mg/kg/injection, vehicle: saline
smiles,measurement,setting,value
COc1cc2cc(c1Cl)N1CC(O)C(C)(O)C(=O)NC(C)C(=O)OC(CC1=O)C1(C)OC1C(C)C1CC(O)(NC(=O)O1)C(OC)/C=C\C=C(\C)C2OC (centres undefined),T/C,"dose: 2.0 micrograms/kg/injection, vehicle: distilled water + alcohol",164 % of control and 165 % of control
same,T/C,"dose: 4.0 micrograms/kg/injection, vehicle: distilled water + alcohol",170 % of control and 185 % of control
same,T/C,"dose: 8.0 micrograms/kg/injection, vehicle: distilled water + alcohol",176 % of control and 195 % of control and 196 % of control
same,T/C,"dose: 16.0 micrograms/kg/injection, vehicle: distilled water + alcohol",183 % of control and 197 % of control and 212 % of control
CCC1=C(C)c2cc3[n-]c(cc4nc(cc5[n-]c(cc1n2)c(C)c5CCC(=O)OC)C(CCC(=O)OC)=C4C)c(C)c3CC.[Ni+2],T/C,"dose: 2.4 mg/kg/injection, vehicle: saline with Tween-80",88 % of control
same,T/C,"dose: 4.7 mg/kg/injection, vehicle: saline with Tween-80",88 % of control
same,T/C,"dose: 9.4 mg/kg/injection, vehicle: saline with Tween-80",92 % of control
CCSc1ncnc2c1ncn2C1OC(CO)C(O)C1O (centres undefined),T/C,[1],93 % of control
same,T/C,[2],95 % of control
CC[C@@]1(O)C[C@H](OC2CC(N(C)C)C(OC3CC(O)C(OC4CCC(=O)C(C)O4)C(C)O3)C(C)O2)c2c(cc3c(c2O)C(=O)c2c(O)cccc2C3=O)[C@H]1C(=O)OC (some centres undefined),T/C,"dose: 3.0 mg/kg/injection, vehicle: saline with Tween-80",151 % of control
Oc1ccc(O)cc1,T/C,"dose: 3.13 mg/kg/injection, vehicle: saline",101 % of control
same,T/C,"dose: 6.25 mg/kg/injection, vehicle: saline",88 % of control
same,T/C,"dose: 12.5 mg/kg/injection, vehicle: saline",95 % of control
same,T/C,"dose: 25.0 mg/kg/injection, vehicle: saline",110 % of control
same,T/C,[3],98 % of control
CC(C)n1cc2c(N)ncnc2n1,T/C,[4],93 % of control
same,T/C,[1],91 % of control
same,T/C,[2],86 % of control
COc1ccc(-c2c3c(cc4cc5c(cc24)OCO5)C(=O)OC3)cc1OC,T/C,"dose: 6.0 mg/kg/injection, vehicle: Klucel (hydroxypropylcellulose) (HPC)",100 % of control
same,T/C,"dose: 12.0 mg/kg/injection, vehicle: Klucel (hydroxypropylcellulose) (HPC)",117 % of control and 105 % of control
same,T/C,"dose: 24.0 mg/kg/injection, vehicle: Klucel (hydroxypropylcellulose) (HPC)",88 % of control and 99 % of control
CCCC(NC(=O)OCc1ccccc1)C(=O)NC(CCSC)C(=O)O (centres undefined) (Cbz-[Nva]-Met-OH; configuration not given here),T/C,[5],100 % of control
same,T/C,[6],104 % of control
same,T/C,[7],96 % of control
COc1cc(C(C)(C)C)cc(OC)c1C(O)(c1c(OC)cc(C(C)(C)C)cc1OC)c1c(OC)cc(C(C)(C)C)cc1OC,T/C,"dose: 6.25 mg/kg/injection, vehicle: saline with Tween-80",107 % of control
same,T/C,[8],114 % of control and 106 % of control
same,T/C,[4],112 % of control and 106 % of control
same,T/C,[1],117 % of control
same,T/C,[2],109 % of control
COc1cc(C(=O)c2cocc2C(=O)c2ccc3c(c2)OCO3)cc(OC)c1OC,T/C,"dose: 50.0 mg/kg/injection, vehicle: Klucel (hydroxypropylcellulose) (HPC)",92 % of control and 101 % of control
same,T/C,[5],113 % of control and 91 % of control
same,T/C,[6],112 % of control
same,T/C,[7],117 % of control
Nc1ncc(C2OC(CO)C(O)C2O)c(=O)[nH]1 (centres undefined),T/C,[3],150 % of control
same,T/C,[9],154 % of control
CC(C)(C)OC(=O)NC(Cc1cnc[nH]1)C(=O)O (centres undefined),T/C,[5],97 % of control
same,T/C,[6],94 % of control
same,T/C,[7],106 % of control
O=CN(SSN(C=O)C1CCCCC1)C1CCCCC1,T/C,[8],90 % of control
same,T/C,[4],106 % of control
same,T/C,[1],101 % of control
same,T/C,[2],89 % of control
same,T/C,"dose: 200.0 mg/kg/injection, vehicle: saline with Tween-80",97 % of control
Cc1c2cc[n+](CCO)cc2c(C)c2c1[nH]c1ccc(O)cc12,T/C,"dose: 0.31 mg/kg/injection, vehicle: saline",113 % of control
same,T/C,"dose: 0.62 mg/kg/injection, vehicle: saline",91 % of control
C=C1[C@@H](O)[C@]2(O)OC[C@@]34[C@H]1[C@@H](OC(=O)C(C)CC)C(=O)O[C@@H]3C[C@H]1C(C)=CC(=O)[C@@H](O)[C@]1(C)[C@@H]24 (some centres undefined),T/C,"dose: 1.0 mg/kg/injection, vehicle: saline with Tween-80",175 % of control
same,T/C,"dose: 2.0 mg/kg/injection, vehicle: saline with Tween-80",165 % of control
same,T/C,"dose: 4.0 mg/kg/injection, vehicle: saline with Tween-80",175 % of control
same,T/C,"dose: 8.0 mg/kg/injection, vehicle: saline with Tween-80",165 % of control
same,T/C,"dose: 16.0 mg/kg/injection, vehicle: saline with Tween-80",180 % of control
Cc1ccc(N=NN(C)C)cc1,T/C,[4],100 % of control
same,T/C,[1],110 % of control
same,T/C,[2],107 % of control
O=CNCC(=O)O,T/C,[3],91 % of control
same,T/C,[9],89 % of control
O=C(O)/C=C/C(=O)Nc1ccc(Cl)c(Cl)c1,T/C,"dose: 6.25 mg/kg/injection, vehicle: Klucel (hydroxypropylcellulose) (HPC)",112 % of control
same,T/C,[7],110 % of control
CCC/C=C/C=C/C(=O)OC1/C(=C/C(=O)OC)CC2CC(C(C)O)OC(=O)CC(O)CC3CC(OC(C)=O)C(C)(C)C(O)(CC4C/C(=C/C(=O)OC)CC(/C=C/C(C)(C)C1(O)O2)O4)O3 (centres undefined),T/C,"dose: 4.69 micrograms/kg/injection, vehicle: saline + alcohol",94 % of control
same,T/C,"dose: 9.38 micrograms/kg/injection, vehicle: saline + alcohol",100 % of control
same,T/C,"dose: 18.75 micrograms/kg/injection, vehicle: saline + alcohol",116 % of control and 104 % of control
same,T/C,"dose: 37.5 micrograms/kg/injection, vehicle: saline + alcohol",111 % of control and 96 % of control
same,T/C,"dose: 75.0 micrograms/kg/injection, vehicle: saline + alcohol",99 % of control and 105 % of control
Cc1nnc(SCC2=C(C(=O)O)N3C(=O)C(NC(=O)Cn4cnnn4)C3SC2)s1 (centres undefined),T/C,[3],91 % of control
same,T/C,[9],93 % of control
same,T/C,"dose: 200.0 mg/kg/injection, vehicle: saline",95 % of control
O=C1NCC(Br)C(=O)N1 (centres undefined),T/C,"dose: 6.25 mg/kg/injection, vehicle: saline + Tween-80 + alcohol",90 % of control
same,T/C,"dose: 12.5 mg/kg/injection, vehicle: saline + Tween-80 + alcohol",99 % of control and 101 % of control
same,T/C,[8],102 % of control
same,T/C,"dose: 25.0 mg/kg/injection, vehicle: saline + Tween-80 + alcohol",100 % of control and 106 % of control
same,T/C,[4],94 % of control and 105 % of control
same,T/C,"dose: 50.0 mg/kg/injection, vehicle: saline + Tween-80 + alcohol",114 % of control and 105 % of control
same,T/C,[1],114 % of control
same,T/C,"dose: 100.0 mg/kg/injection, vehicle: saline + Tween-80 + alcohol",109 % of control and 100 % of control
same,T/C,[2],116 % of control
same,T/C,"dose: 200.0 mg/kg/injection, vehicle: saline + Tween-80 + alcohol",96 % of control
Cc1cc(NCCN(C(C)C)C(C)C)nc(/N=C(\N)Nc2ccc(Cl)c(C(F)(F)F)c2)n1,T/C,"dose: 1.25 mg/kg/injection, vehicle: Klucel (hydroxypropylcellulose) (HPC)",111 % of control
same,T/C,"dose: 2.5 mg/kg/injection, vehicle: Klucel (hydroxypropylcellulose) (HPC)",106 % of control
same,T/C,"dose: 5.0 mg/kg/injection, vehicle: Klucel (hydroxypropylcellulose) (HPC)",100 % of control
same,T/C,"dose: 10.0 mg/kg/injection, vehicle: Klucel (hydroxypropylcellulose) (HPC)",86 % of control
same,T/C,"dose: 20.0 mg/kg/injection, vehicle: Klucel (hydroxypropylcellulose) (HPC)",96 % of control
same,T/C,"dose: 40.0 mg/kg/injection, vehicle: Klucel (hydroxypropylcellulose) (HPC)",98 % of control
Nc1nc2c(ncn2C2OC(CO)C(O)C2O)c(=O)[nH]1 (centres undefined),T/C,"dose: 75.0 mg/kg/injection, vehicle: saline with Tween-80",120 % of control
same,T/C,"dose: 1200.0 mg/kg/injection, vehicle: saline with Tween-80",121 % of control
same,T/C,"dose: 2400.0 mg/kg/injection, vehicle: saline with Tween-80",116 % of control

# From PubChem BioAssay AID200 (DTP/NCI, 2004)
